Tests used:
[1] = system: sensitive L1210 murine leukemia cells; assay: Multiple drug resistance, 3H-Thymidine uptake; format: cell-based; conditions: Mus musculus, daunorubicin alone
Protocol: (§1) Multiple drug resistance (MDR) was tested in vitro using resistant and sensitive L1210 murine leukemia cells.
(§2) The final concentration of daunorubicin in each well was 0, 0.3, 1, 3, 10, 30, 100 or 1000 ng/ml. […] Fifty microliters of each daunorubicin concentration was added to one well of a flat bottom 96-well culture plate. […] Each drug combination was tested in triplicate.
(§3) The resistant and sensitive cells to be added to each well were grown overnight in a CO2 incubator at 37° C. in RPMI-1640 (10% fetal calf serum and 1% pen-strep). The cells were centrifuged at 1000 rpm for 10 minutes. The cell pellet was resuspended in RPMI-1640 (20% fetal calf serum and 2% pen-strep) and adjusted to 1×10^5 cells/ml. The cells were then added to the wells (100 μl (1×10^4 cells)/well) containing the drug combinations and incubated for 24 hours at 37° C. in a CO2 incubator. Positive control wells contained only cells and media and negative control wells contained cells, media, and 20 μl of 1.5M Tris buffer.
(§4) After 20 hours of incubation, the cells were pulsed with 0.5μ Cu of ^3 H-Thymidine per well. The samples were incubated for another 4 hours. The cells in each well were then harvested using a Skatron Harvester and counted in a beta liquid scintillation counter (LKB).

[2] = system: resistant L1210 murine leukemia cells; assay: Multiple drug resistance, 3H-Thymidine uptake; format: cell-based; conditions: Mus musculus, L1210, read-out: IC50 in Resistant Cells
Protocol: as §1, §2, §3, §4

Structure (SMILES): COc1cccc2c1C(=O)c1c(O)c3c(c(O)c1C2=O)C[C@@](O)(C(C)=O)C[C@@H]3O[C@H]1C[C@H](N)[C@H](O)[C@H](C)O1 [Daunorubicin]
- IC50 [1]: 0.47 µg/mL
- IC50 [2]: 0.722 µg/mL

— patent US5683714A, “Liposomal cyclosporin pharmaceutical formulation” (NeXstar Pharmaceuticals, Inc., priority 1995, dated 1997)
